In patent US11618747B2, “LXR modulators with bicyclic core moiety” (OrsoBio, Inc., priority 2018, dated 2023):
Read-outs that look alike come from different tables or passages of the source.

Assays:
full length (FL) LXRα = target: T1, full length (FL) LXRα (Homo sapiens, UniProt Q13133); experiment: LXR Gal4 reporter transient transfection assay (FL-M2H Gal4α); assay type: cell-based; details: HEK293 cells
T1 construct: the full length (FL) proteins of LXRα (amino acids 1-447); NP005684; expressed in transfected cells; host or cells: HEK293
T1 sequence (Q13133 1-447): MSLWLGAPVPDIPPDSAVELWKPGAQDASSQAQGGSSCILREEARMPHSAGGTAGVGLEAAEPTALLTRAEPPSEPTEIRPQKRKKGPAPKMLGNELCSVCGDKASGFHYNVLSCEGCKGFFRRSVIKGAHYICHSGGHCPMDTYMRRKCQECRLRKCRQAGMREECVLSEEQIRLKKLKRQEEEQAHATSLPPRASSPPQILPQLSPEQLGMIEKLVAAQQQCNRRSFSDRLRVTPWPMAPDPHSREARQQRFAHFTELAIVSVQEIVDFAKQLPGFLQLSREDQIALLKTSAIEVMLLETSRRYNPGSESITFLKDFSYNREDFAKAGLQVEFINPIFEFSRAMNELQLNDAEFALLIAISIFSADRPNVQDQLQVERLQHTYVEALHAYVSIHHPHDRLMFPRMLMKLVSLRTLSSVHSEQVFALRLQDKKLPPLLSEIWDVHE
Procedure, shortened: (§1)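 Cells (HEK293, 3.5×10^4/well) were plated 16-20 h, transfected with LXR, cofactor and reporter plasmids, treated with compound after 4 h, and lysed after a further 16 h. Interaction of LXR constructs with SRC1 or NCoR is detected by GAL4-driven Firefly luciferase.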

[1] = target: T2, LXRβ ligand-binding domain (Homo sapiens, UniProt P55055, DUP175-175); experiment: TR-FRETβ activity assay (NCoA3 coactivator peptide recruitment); assay type: biochemical
T2 construct: amino acids 156-461; NP009052; made in house; host or cells: E. coli
T2 sequence (P55055 with tags, fused parts or gaps DUP175-175 limits assumed): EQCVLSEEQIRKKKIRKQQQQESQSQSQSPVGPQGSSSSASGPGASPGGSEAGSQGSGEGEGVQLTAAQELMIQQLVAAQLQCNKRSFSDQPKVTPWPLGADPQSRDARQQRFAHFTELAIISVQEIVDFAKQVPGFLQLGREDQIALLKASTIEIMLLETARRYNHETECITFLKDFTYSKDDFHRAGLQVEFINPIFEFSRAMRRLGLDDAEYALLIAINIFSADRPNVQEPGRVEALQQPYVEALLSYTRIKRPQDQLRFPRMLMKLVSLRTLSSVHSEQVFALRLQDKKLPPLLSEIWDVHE
Procedure, shortened: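 Inverse agonism assessed by loss of coactivator recruitment, read as TR-FRET 665/615 nm after 1 h equilibration at 4 °C, in triplicate. Ten-point titration from 50 μM to 0.002 μM against LXRβ LBD (76 nM, GST fusion) prestimulated with 1 μM 24(S)-25-epoxycholesterol, with 400 nM NCoA3 peptide, pH 6.8. Sulfonyl acetic acids kept as 20 mM DMSO stocks with 100 mM TFA.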

full length (FL) LXRβ = target: T3, full length (FL) LXRβ (Homo sapiens, UniProt P55055, DUP175-175); experiment: LXR Gal4 reporter transient transfection assay (FL-M2H Gal4β); assay type: cell-based; details: HEK293 cells
T3 construct: the full length (FL) proteins of LXRα (amino acids 1-447); NP005684; NP009052; expressed in transfected cells; host or cells: HEK293
T3 sequence (P55055 with tags, fused parts or gaps DUP175-175): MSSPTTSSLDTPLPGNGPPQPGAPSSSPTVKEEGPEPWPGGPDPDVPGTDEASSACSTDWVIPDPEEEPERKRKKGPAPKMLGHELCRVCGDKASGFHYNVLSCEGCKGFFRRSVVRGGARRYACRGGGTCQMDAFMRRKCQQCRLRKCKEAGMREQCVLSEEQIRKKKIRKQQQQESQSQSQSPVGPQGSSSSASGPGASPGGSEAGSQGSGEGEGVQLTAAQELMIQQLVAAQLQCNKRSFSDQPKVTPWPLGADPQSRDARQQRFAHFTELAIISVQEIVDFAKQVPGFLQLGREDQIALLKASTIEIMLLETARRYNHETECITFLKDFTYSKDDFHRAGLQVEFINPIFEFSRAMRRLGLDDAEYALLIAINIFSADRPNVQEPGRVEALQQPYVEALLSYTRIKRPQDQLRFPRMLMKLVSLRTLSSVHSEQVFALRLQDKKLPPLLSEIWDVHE
Procedure, shortened: as §1

[2] = full length LXRα, read-out: FL-M2H Gal4α (EC50 range)
[3] = TR-FRET, 1 μM 24(S)-25-epoxycholesterol prestimulation, read-out: FRETβ (EC50 range)
[4] = full length LXRβ, read-out: FL-M2H Gal4β (EC50 range)

Row | SMILES | FL-M2H Gal4α efficacy (value in brackets) (full length (FL) LXRα) [%] | EC50 (full length (FL) LXRα; [2]) [nM] | EC50 (full length (FL) LXRα; read-out: FL-M2H Gal4α potency) [nM] | FRETβ efficacy (value in brackets) ([1]; 1 μM 24(S)-25-epoxycholesterol as prestimulating agonist) [%] | EC50 ([1]; 1 μM 24(S)-25-epoxycholesterol as prestimulating agonist, read-out: FRETβ potency) [nM] | EC50 [1, 3] [nM] | FL-M2H Gal4β efficacy (value in brackets) (full length (FL) LXRβ) [%] | EC50 (full length (FL) LXRβ; [4]) [nM] | EC50 (full length (FL) LXRβ; read-out: FL-M2H Gal4β potency) [nM]
1 | O=C(O)c1ccc(-c2cccc(-c3c(-c4ccccc4)c4cc(F)ccc4n3S(=O)(=O)c3ccc(C(F)F)cc3)c2)c(Cl)c1 [C11/39, reference compound] | 117 | < 100 | 14 | −91 | 104 | 100 to 1000 | 140 | < 100 | 14
2 | Cc1ccc(S(=O)(=O)n2c(-c3cccc(-c4ccc(C(=O)O)cc4Cl)c3)c(-c3cc(C)ccc3C#N)c3cc(F)ccc32)cc1 [11/5] |  | < 100 |  |  |  | < 100 |  | < 100 | 
3 | N#Cc1cccc(C#N)c1-c1c(-c2cccc(-c3ccc(C(=O)O)cc3Cl)c2)n(S(=O)(=O)c2ccc(C(F)F)cc2)c2ccccc12 [11/56] |  | < 100 |  |  |  | < 100 |  | < 100 | 
4 | Cc1ccc(S(=O)(=O)n2c(-c3cccc(-c4ccc(C(=O)O)nc4)c3)c(-c3ccsc3C#N)c3cc(F)ccc32)cc1 [3/47] |  | < 100 |  |  |  | 100 to 1000 |  | < 100 | 
5 | CC1(C)CCN(S(=O)(=O)n2c(-c3cccc(-c4ccc(C(=O)O)cc4)c3)c(-c3ccsc3C#N)c3ccccc32)CC1 [3/66] |  | 100 to 1000 |  |  |  | 1000 to 10000 |  | 100 to 1000 | 
6 | Cc1ccc(S(=O)(=O)n2c(-c3cccc(N4CC(C(=O)O)C4)c3)c(-c3sccc3C#N)c3cc(F)ccc32)cc1 [3/25] |  | 100 to 1000 |  |  |  | 1000 to 10000 |  | < 100 | 
7 | Cc1ccc(S(=O)(=O)n2c(-c3cccc(-n4ccc(C(=O)O)cc4=O)c3)c(-c3ccsc3C#N)c3cc(F)ccc32)cc1 [5/5] |  | 100 to 1000 |  |  |  | 100 to 1000 |  | 100 to 1000 | 
8 | O=C(O)c1ccc(-c2cccc(-c3c(-c4ccsc4C4COC4)c4cc(F)ccc4n3S(=O)(=O)c3ccc(C(F)F)cc3)c2)c(Cl)c1 [3/63] |  | < 100 |  |  |  | < 100 |  | < 100 | 
9 | N#Cc1sccc1-c1c(-c2cccc(-c3ccc(C(=O)NCCS(=O)(=O)O)cc3Cl)c2)n(S(=O)(=O)c2ccc(C(F)F)cc2)c2ccc(F)cc12 [10/3] |  | < 100 |  |  |  | < 100 |  | < 100 | 
10 | N#Cc1sccc1-c1c(-c2cccc(N3CC(C(=O)O)C3)c2)n(S(=O)(=O)c2ccc3c(c2)CCC3)c2ccc(F)cc12 [3/12] |  | < 100 |  |  |  | 100 to 1000 |  | < 100 | 
11 | O=C(O)c1ccc(-c2cccc(-c3c(-c4cccc5c4OCO5)c4cc(F)ccc4n3S(=O)(=O)c3ccc(C(F)F)cc3)c2)c(Cl)c1 [11/44] |  | < 100 |  |  |  | < 100 |  | < 100 | 
12 | COc1cccc(-c2c(-c3cccc(-c4ccc(C(=O)O)cc4Cl)c3)n(S(=O)(=O)c3ccc(C)cc3)c3ccc(F)cc23)c1C#N [11/3] |  | < 100 |  |  |  | < 100 |  | < 100 | 
13 | O=C(O)c1ccc(-c2cccc(-c3c(-c4cn[nH]c4C(F)(F)F)c4cc(F)ccc4n3S(=O)(=O)c3ccc(C(F)F)cc3)c2)c(Cl)c1 [11/25] |  | 100 to 1000 |  |  |  | 100 to 1000 |  | < 100 | 
14 | Cc1ccc(S(=O)(=O)n2c(-c3cccc(N4CC(C)(C(=O)O)C4)c3)c(-c3ccsc3C#N)c3cc(F)ccc32)cc1 [3/37] |  | < 100 |  |  |  | 100 to 1000 |  | < 100 | 
15 | Cc1ccc(S(=O)(=O)n2c(-c3cccc(C#CC(C)(C)C(=O)O)c3)c(-c3ccsc3C#N)c3cc(F)ccc32)cc1 [5/4] |  | 100 to 1000 |  |  |  | 1000 to 10000 |  | < 100 | 
16 | N#Cc1sccc1-c1c(-c2cccc(N3CC(C(=O)O)C3)c2)n(S(=O)(=O)c2ccc3ccccc3c2)c2ccc(F)cc12 [3/13] |  | < 100 |  |  |  | 1000 to 10000 |  | < 100 | 
17 | Cc1cccc(C#N)c1-c1c(-c2cccc(-c3ccc(C(=O)O)cc3Cl)c2)n(S(=O)(=O)c2ccc(C(F)F)cc2)c2ccc(F)cc12 (single isomer, unassigned) [41/1, 2-chloro-3′-(3-(2-cyano-6-methylphenyl)-1-((4-(difluoro-methyl)phenyl)sulfonyl)-5-fluoro-1H-indol-2-yl)-[1,1′-biphenyl]-4-carboxylic Acid] |  | < 100 |  |  |  | < 100 |  | < 100 | 
18 | Cc1ccc(S(=O)(=O)n2c(-c3cccc([C@@H]4C[C@H]4C(=O)O)c3)c(-c3ccsc3C#N)c3ncccc32)cc1 (relative stereo) [Example 4, trans-2-(3-(3-(2-Cyanothioahen-3-yl)-1-tosyl-1H-pyrrolo[3,2-b]pyridin-2-yl)phenyl)cyclopropane-1-carboxylic Acid] |  | < 100 |  |  |  | 1000 to 10000 |  | 100 to 1000 | 
19 | O=C(NCCS(=O)(=O)O)C1CC1c1cccc(-c2c(-c3c(Cl)cccc3Cl)c3cc(F)ccc3n2S(=O)(=O)c2ccc(C(F)F)cc2)c1 (stereo not drawn) [10/4] |  | 100 to 1000 |  |  |  | < 100 |  | < 100 | 
20 | Cc1cc(S(=O)(=O)n2c(-c3cccc(-c4ccc(C(=O)O)cc4Cl)c3)c(-c3ccsc3C#N)c3cc(F)ccc32)ccc1F [3/23] |  | < 100 |  |  |  | 100 to 1000 |  | < 100 | 
21 | Cc1ccc(S(=O)(=O)n2c(-c3cccc(N4CC(C(=O)O)C4)c3)c(-c3ccsc3C#N)c3cc(F)ccc32)c(F)c1 [3/14] |  | 100 to 1000 |  |  |  | 1000 to 10000 |  | 100 to 1000 | 
22 | N#Cc1cccc(C#N)c1-c1c(-c2cccc(-c3ccc(C(=O)O)cc3Cl)c2)n(S(=O)(=O)c2ccc(C(F)F)cc2)c2cnc(O)cc12 [3/70] |  | 100 to 1000 |  |  |  | 100 to 1000 |  | 100 to 1000 | 
23 | O=C(O)c1ccc(-c2cccc(-c3c(-c4ccsc4C(F)F)c4cc(F)ccc4n3S(=O)(=O)c3ccc(Cl)cc3)c2)c(Cl)c1 [11/21] |  | < 100 |  |  |  | < 100 |  | < 100 | 
24 | COc1cc(-c2c(-c3cccc(-c4ccc(C(=O)O)cc4Cl)c3)n(S(=O)(=O)c3ccc(C(F)F)cc3)c3ccc(F)cc23)c2c(C#N)cnn2c1 [11/46] |  | < 100 |  |  |  | < 100 |  | < 100 | 
25 | O=C(O)C1CC1c1cccc(-c2c(-c3c(Cl)cccc3Cl)c3cc(F)ccc3n2S(=O)(=O)c2ccc(C(F)F)cc2)c1 (stereo not drawn) [11/69] |  | < 100 |  |  |  | < 100 |  | < 100 | 
26 | [2H]c1c([2H])c(S(=O)(=O)n2c(-c3cccc(-c4ccc(C(=O)O)cc4Cl)c3)c(-c3ccsc3C#N)c3cc(F)ccc32)c([2H])c([2H])c1C([2H])([2H])[2H] [3/22] |  | < 100 |  |  |  | < 100 |  | < 100 | 
27 | N#Cc1cccc(C#N)c1-c1c(-c2cccc(-c3ccc(C(=O)O)cc3F)c2)n(S(=O)(=O)C2CCC(C(F)(F)F)CC2)c2ccc(F)cc12 (stereo not drawn) [11/64] |  | < 100 |  |  |  | 100 to 1000 |  | < 100 | 
28 | COc1ccc(S(=O)(=O)n2c(-c3cccc(N4CC(C(=O)O)C4)c3)c(-c3ccsc3C#N)c3cc(F)ccc32)cn1 [5/8] |  | 100 to 1000 |  |  |  | 100 to 1000 |  | 100 to 1000 | 
29 | N#Cc1cccc(C#N)c1-c1c(-c2cccc(-c3ccc(S(=O)(=O)O)cc3Cl)c2)n(S(=O)(=O)c2ccc(C(F)F)cc2)c2ccc(F)cc12 [12/10] |  | < 100 |  |  |  | < 100 |  | < 100 | 
